Experimental data taken from patent publication US9605004B2, “Chemical compounds” (SYNGENTA LIMITED, priority 2013, dated 2017).

How the values were obtained:
[1] = system: a variety of test species; assay: Pre-emergence herbicidal activity (Example 8a, Table 2); format: in vivo; parameters: key: 0 = no damage to plant, 5 = total damage to plant; conditions: application pre-emergence, rate 1000 g/ha, evaluated after 13 days
In short: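 Pre-emergence spray, one day post-sowing; vehicle acetone/water (50:50) + 0.5% Tween 20, aqueous dilution. Glasshouse 24/16 °C, 14 h light, 65% RH, watering twice daily. Score at 13 d on 0–5 scale, 5 = total damage.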

[2] = system: a variety of test species; assay: Post-emergence herbicidal activity (Example 8b, Table 3); format: in vivo; conditions: application post-emergence, rate 1000 g/ha, evaluated after 13 days, scale 0-5; for Herbicidal damage score, ABUTH: Abutilon theophrasti; for Herbicidal damage score, ALOMY: Alopecurus myosuroides; for Herbicidal damage score, AMARE: Amaranthus retroflexus; for Herbicidal damage score, ECHCG: Echinochloa crus-galli; for Herbicidal damage score, SETFA: Setaria faberi; for Herbicidal damage score, ZEAMX: Zea mays
In short: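 Foliar application to 8-day-old plants using a 0.5% Tween 20 acetone/water carrier; phytotoxicity is scored visually from 0 to 5 after 13 days of growth at 24/16 °C day/night.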

Row | Structure (SMILES) | Pre-emergence herbicidal activity, damage score ABUTH [1] | Pre-emergence herbicidal activity, damage score ALOMY [1] | Pre-emergence herbicidal activity, damage score AMARE [1] | Pre-emergence herbicidal activity, damage score ECHCG [1] | Pre-emergence herbicidal activity, damage score SETFA [1] | Pre-emergence herbicidal activity, damage score ZEAMX [1] | Herbicidal damage score, ABUTH [2] | Herbicidal damage score, ALOMY [2] | Herbicidal damage score, AMARE [2] | Herbicidal damage score, ECHCG [2] | Herbicidal damage score, SETFA [2] | Herbicidal damage score, ZEAMX [2]
1 | COC1=C(C)C(O)N(c2cc(C(C)(C)C)n(C)n2)C1=O (stereo not drawn) [Compound H1, 1-(5-tert-butyl-1-methyl-pyrazol-3-yl)-2-hydroxy-4-methoxy-3-methyl-2H-pyrrol-5-one] | 5 | 4 | 5 | 5 | 5 | 4 | 5 | 5 | 5 | 5 | 5 | 4
2 | COC1=C(C)C(O)N(c2cc(C(C)(C)C)n(C)n2)C1=O (stereo not drawn) [Compound H2] |  | 4 |  |  |  | 4 |  |  |  |  |  | 4
3 | COC1=C(C)C(O)N(c2nn(C)c(C(C)(C)C)c2C#N)C1=O (stereo not drawn) [Compound H3] | 4 | 4 | 4 | 5 | 4 | 1 | 5 | 5 | 4 | 5 | 5 | 3
4 | COC1=C(C)C(O)N(c2cc(C(F)(F)F)n(C)n2)C1=O (stereo not drawn) [Compound H4] | 5 | 4 | 5 | 5 | 5 | 4 | 5 | 5 | 5 | 5 | 5 | 5
5 | CC1=C(Br)C(=O)N(c2cc(C(C)(C)C)[nH]n2)C1O (stereo not drawn) [Compound I1] | 5 | 4 | 5 | 5 | 4 | 3 | 5 | 4 | 5 | 5 | 5 | 5
6 | CC1=C(Br)C(=O)N(c2cc(C(C)(C)C)n(C)n2)C1O (stereo not drawn) [Compound J1] | 5 | 3 | 5 | 5 | 4 | 2 | 5 | 5 | 5 | 5 | 5 | 4
7 | CC1=C(Br)C(=O)N(c2cc(C(C)(C)C)n(C)n2)C1O (stereo not drawn) [Compound J2] | 5 | 3 | 5 | 5 | 4 | 2 | 5 | 5 | 5 | 5 | 5 | 4
